From patent publication US10874743B2, “IRAK degraders and uses thereof” (Kymera Therapeutics, Inc., priority 2017, dated 2020)
Where “and” joins values, the source holds several entries; their conditions need not be identical. Equal entries are not always repeated. Where two headings read alike, the source gives them in different places.

Assay: Pharmacokinetics in CD-1 mice (plasma concentrations, PK parameters)
Format: in vivo
Conditions: for concentration at 5 min / concentration at 0.5 h / concentration at 1 h / concentration at 2 h / concentration at 4 h / concentration at 24 h / concentration at 6 h: read-out: Concentration; for AUC(0-inf): read-out: AUCInf; for AUC(0-t): read-out: AUClast; for MRT inf: read-out: MRTInf_obs
Experimental: Pharmacokinetics for I-127, I-172 and I-210 were determined in Sprague Dawley rats or CD-1 mice by dosing intravenous (IV), subcutaneous (SC) or per oral (PO) using facility SOPs and sampling plasma at required time points. Species, formulation, route of administration and time points samples are listed below for each compound.
Compounds were extracted from plasma, injected on reverse phase HPLC, eluted with a gradient from 5% to 95% acetonitrile in water and quantified by mass spectrometry with internal standard. Data are expressed in ng compound per mL of plasma.

[1] = CD-1, mouse, plasma, iv, 2 mg/kg, mouse (CD1) iv 2 mg/kg, Mean
[2] = CD-1, mouse, plasma, iv, 2 mg/kg, mouse (CD1) iv 2 mg/kg, individual Mouse 1-3
[3] = CD-1, mouse, plasma, sc, 30 mg/kg, mouse (CD1) sc 30 mg/kg, Mean
[4] = CD-1, mouse, plasma, sc, 30 mg/kg, mouse (CD1) sc 30 mg/kg, individual Mouse 7-9
[5] = mouse (CD1) iv 2 mg/kg, individual Mouse 1-3, 2 mg/kg
[6] = mouse (CD1) sc 30 mg/kg, individual Mouse 7-9, 30 mg/kg

concentration at 5 min (CD-1, mouse, plasma, iv, 2 mg/kg, mouse (CD1) iv 2 mg/kg, 5 min, Mean): 3420 ng/mL
concentration at 5 min (CD-1, mouse, plasma, iv, 2 mg/kg, mouse (CD1) iv 2 mg/kg, 5 min, individual Mouse 1-3): 4150 ng/mL
concentration at 0.25 h (CD-1, mouse, plasma, iv, 2 mg/kg, mouse (CD1) iv 2 mg/kg, 0.25 h, Mean): 387 ng/mL
concentration at 0.25 h (CD-1, mouse, plasma, iv, 2 mg/kg, mouse (CD1) iv 2 mg/kg, 0.25 h, individual Mouse 1-3): 444 ng/mL
concentration at 0.5 h (CD-1, mouse, plasma, iv, 2 mg/kg, mouse (CD1) iv 2 mg/kg, 0.5 h, Mean): 123 ng/mL
concentration at 0.5 h (CD-1, mouse, plasma, iv, 2 mg/kg, mouse (CD1) iv 2 mg/kg, 0.5 h, individual Mouse 1-3): 130 ng/mL
concentration at 1 h (CD-1, mouse, plasma, iv, 2 mg/kg, mouse (CD1) iv 2 mg/kg, 1 h, Mean): 34.7 ng/mL
concentration at 1 h (CD-1, mouse, plasma, iv, 2 mg/kg, mouse (CD1) iv 2 mg/kg, 1 h, individual Mouse 1-3): 34.3 ng/mL
concentration at 2 h (CD-1, mouse, plasma, iv, 2 mg/kg, mouse (CD1) iv 2 mg/kg, 2 h, Mean): 12.6 ng/mL
concentration at 2 h (CD-1, mouse, plasma, iv, 2 mg/kg, mouse (CD1) iv 2 mg/kg, 2 h, individual Mouse 1-3): 11.5 ng/mL
concentration at 4 h (CD-1, mouse, plasma, iv, 2 mg/kg, mouse (CD1) iv 2 mg/kg, 4 h, Mean): 7.77 ng/mL
concentration at 4 h (CD-1, mouse, plasma, iv, 2 mg/kg, mouse (CD1) iv 2 mg/kg, 4 h, individual Mouse 1-3): 9.04 ng/mL
concentration at 8 h (CD-1, mouse, plasma, iv, 2 mg/kg, mouse (CD1) iv 2 mg/kg, 8 h, Mean): 2.46 ng/mL
concentration at 8 h (CD-1, mouse, plasma, iv, 2 mg/kg, mouse (CD1) iv 2 mg/kg, 8 h, individual Mouse 1-3): 2.62 ng/mL
concentration at 24 h (CD-1, mouse, plasma, iv, 2 mg/kg, mouse (CD1) iv 2 mg/kg, 24 h, individual Mouse 1-3): 2.55 ng/mL
half-life [1]: 2.53 h
AUC(0-inf) [1]: 1070 ng·h/mL
AUC(0-t) [1]: 1060 ng·h/mL
C0 (CD-1, mouse, plasma, iv, 2 mg/kg, mouse (CD1) iv 2 mg/kg, Mean, read-out: C0): 10200 ng/mL
MRT inf [1]: 0.61 h
half-life [2]: 2.71 h
AUC(0-inf) [2]: 1270 ng·h/mL
AUC(0-t) [2]: 1260 ng·h/mL
C0 (CD-1, mouse, plasma, iv, 2 mg/kg, mouse (CD1) iv 2 mg/kg, individual Mouse 1-3, read-out: C0): 12700 ng/mL
concentration at 0.25 h (CD-1, mouse, plasma, sc, 30 mg/kg, mouse (CD1) sc 30 mg/kg, 0.25 h, Mean): 43.1 ng/mL
concentration at 0.25 h (CD-1, mouse, plasma, sc, 30 mg/kg, mouse (CD1) sc 30 mg/kg, 0.25 h, individual Mouse 7-9): 34.6 ng/mL
concentration at 0.5 h (CD-1, mouse, plasma, sc, 30 mg/kg, mouse (CD1) sc 30 mg/kg, 0.5 h, Mean): 64.8 ng/mL
concentration at 0.5 h (CD-1, mouse, plasma, sc, 30 mg/kg, mouse (CD1) sc 30 mg/kg, 0.5 h, individual Mouse 7-9): 71.9 ng/mL
concentration at 1 h (CD-1, mouse, plasma, sc, 30 mg/kg, mouse (CD1) sc 30 mg/kg, 1 h, Mean): 64.8 ng/mL
concentration at 1 h (CD-1, mouse, plasma, sc, 30 mg/kg, mouse (CD1) sc 30 mg/kg, 1 h, individual Mouse 7-9): 52.6 ng/mL
concentration at 2 h (CD-1, mouse, plasma, sc, 30 mg/kg, mouse (CD1) sc 30 mg/kg, 2 h, Mean): 50.8 ng/mL
concentration at 2 h (CD-1, mouse, plasma, sc, 30 mg/kg, mouse (CD1) sc 30 mg/kg, 2 h, individual Mouse 7-9): 48 ng/mL
concentration at 4 h (CD-1, mouse, plasma, sc, 30 mg/kg, mouse (CD1) sc 30 mg/kg, 4 h, Mean): 37.3 ng/mL
concentration at 4 h (CD-1, mouse, plasma, sc, 30 mg/kg, mouse (CD1) sc 30 mg/kg, 4 h, individual Mouse 7-9): 33.3 ng/mL
concentration at 6 h (CD-1, mouse, plasma, sc, 30 mg/kg, mouse (CD1) sc 30 mg/kg, 6 h, Mean): 19.4 ng/mL
concentration at 6 h (CD-1, mouse, plasma, sc, 30 mg/kg, mouse (CD1) sc 30 mg/kg, 6 h, individual Mouse 7-9): 16 ng/mL
concentration at 24 h (CD-1, mouse, plasma, sc, 30 mg/kg, mouse (CD1) sc 30 mg/kg, 24 h, Mean): 5.33 ng/mL
concentration at 24 h (CD-1, mouse, plasma, sc, 30 mg/kg, mouse (CD1) sc 30 mg/kg, 24 h, individual Mouse 7-9): 5.4 ng/mL
half-life [3]: 8 h
AUC(0-inf) [3]: 538 ng·h/mL
AUC(0-t) [3]: 476 ng·h/mL
Cmax (CD-1, mouse, plasma, sc, 30 mg/kg, mouse (CD1) sc 30 mg/kg, Mean, read-out: Cmax): 71.2 ng/mL
MRT inf [3]: 9.4 h
Tmax (CD-1, mouse, plasma, sc, 30 mg/kg, mouse (CD1) sc 30 mg/kg, Mean, read-out: Tmax): 0.833 h
half-life [4]: 8.79 h
AUC(0-inf) [4]: 491 ng·h/mL
AUC(0-t) [4]: 422 ng·h/mL
Cmax (CD-1, mouse, plasma, sc, 30 mg/kg, mouse (CD1) sc 30 mg/kg, individual Mouse 7-9, read-out: Cmax): 71.9 ng/mL
MRT inf [4]: 10.4 h
Tmax (CD-1, mouse, plasma, sc, 30 mg/kg, mouse (CD1) sc 30 mg/kg, individual Mouse 7-9, read-out: Tmax): 0.5 h
Concentration (mouse (CD1) iv 2 mg/kg, 5 min, individual Mouse 1-3, 2 mg/kg): 2810 ng/mL and 3290 ng/mL
Concentration (mouse (CD1) iv 2 mg/kg, 0.25 h, individual Mouse 1-3, 2 mg/kg): 314 ng/mL and 404 ng/mL
Concentration (mouse (CD1) iv 2 mg/kg, 0.5 h, individual Mouse 1-3, 2 mg/kg): 102 ng/mL and 136 ng/mL
Concentration (mouse (CD1) iv 2 mg/kg, 1 h, individual Mouse 1-3, 2 mg/kg): 31.5 ng/mL and 38.2 ng/mL
Concentration (mouse (CD1) iv 2 mg/kg, 2 h, individual Mouse 1-3, 2 mg/kg): 11.7 ng/mL and 14.6 ng/mL
Concentration (mouse (CD1) iv 2 mg/kg, 4 h, individual Mouse 1-3, 2 mg/kg): 6.56 ng/mL and 7.70 ng/mL
Concentration (mouse (CD1) iv 2 mg/kg, 8 h, individual Mouse 1-3, 2 mg/kg): 2.07 ng/mL and 2.69 ng/mL
Concentration (mouse (CD1) iv 2 mg/kg, 24 h, individual Mouse 1-3, 2 mg/kg): BLOQ
AUC_%Extrap_obs (mouse (CD1) iv 2 mg/kg, Mean): 0.826%
AUClast/D (mouse (CD1) iv 2 mg/kg, Mean): 532 h·ng/mL per mg/kg
Cl_obs (mouse (CD1) iv 2 mg/kg, Mean): 31.8 mL/min/kg
Vss_obs (mouse (CD1) iv 2 mg/kg, Mean): 1.15 L/kg
AUCInf [5]: 877 ng·h/mL and 1067 ng·h/mL
AUC_%Extrap_obs [5]: 0.805% and 0.818% and 0.856%
AUClast [5]: 870 ng·h/mL and 1058 ng·h/mL
AUClast/D [5]: 632 h·ng/mL per mg/kg and 435 h·ng/mL per mg/kg and 529 h·ng/mL per mg/kg
C0 [5]: 8401 ng/mL and 9383 ng/mL
MRTInf_obs [5]: 0.332 h and 0.362 h and 1.13 h
T1/2 [5]: 2.40 h and 2.48 h
Vss_obs [5]: 0.522 L/kg and 0.826 L/kg and 2.11 L/kg
Concentration (mouse (CD1) po 30 mg/kg, 0.25 h, individual Mouse 4-6): BLOQ
Concentration (mouse (CD1) po 30 mg/kg, 0.5 h, individual Mouse 4-6): BLOQ
Concentration (mouse (CD1) po 30 mg/kg, 1 h, individual Mouse 4-6): BLOQ
Concentration (mouse (CD1) po 30 mg/kg, 2 h, individual Mouse 4-6): BLOQ
Concentration (mouse (CD1) po 30 mg/kg, 4 h, individual Mouse 4-6): BLOQ
Concentration (mouse (CD1) po 30 mg/kg, 8 h, individual Mouse 4-6): BLOQ
Concentration (mouse (CD1) po 30 mg/kg, 24 h, individual Mouse 4-6): BLOQ
Concentration (mouse (CD1) sc 30 mg/kg, 0.25 h, individual Mouse 7-9, 30 mg/kg): 40.0 ng/mL and 54.6 ng/mL
Concentration (mouse (CD1) sc 30 mg/kg, 0.5 h, individual Mouse 7-9, 30 mg/kg): 57.6 ng/mL and 64.8 ng/mL
Concentration (mouse (CD1) sc 30 mg/kg, 1 h, individual Mouse 7-9, 30 mg/kg): 63.0 ng/mL and 78.7 ng/mL
Concentration (mouse (CD1) sc 30 mg/kg, 2 h, individual Mouse 7-9, 30 mg/kg): 46.5 ng/mL and 58.0 ng/mL
Concentration (mouse (CD1) sc 30 mg/kg, 4 h, individual Mouse 7-9, 30 mg/kg): 37.0 ng/mL and 41.6 ng/mL
Concentration (mouse (CD1) sc 30 mg/kg, 6 h, individual Mouse 7-9, 30 mg/kg): 20.7 ng/mL and 21.5 ng/mL
Concentration (mouse (CD1) sc 30 mg/kg, 24 h, individual Mouse 7-9, 30 mg/kg): 4.74 ng/mL and 5.85 ng/mL
AUC_%Extrap_obs (mouse (CD1) sc 30 mg/kg, Mean): 11.5%
AUClast/D (mouse (CD1) sc 30 mg/kg, Mean): 15.9 h·ng/mL per mg/kg
F (mouse (CD1) sc 30 mg/kg, Mean): 3.34%
AUCInf [6]: 522 ng·h/mL and 601 ng·h/mL
AUC_%Extrap_obs [6]: 14.0% and 9.60% and 11.1%
AUClast [6]: 472 ng·h/mL and 535 ng·h/mL
AUClast/D [6]: 14.1 h·ng/mL per mg/kg and 15.7 h·ng/mL per mg/kg and 17.8 h·ng/mL per mg/kg
Cmax [6]: 63.0 ng/mL and 78.7 ng/mL
F [6]: 3.05% and 3.25% and 3.74%
MRTInf_obs [6]: 8.61 h and 9.13 h
T1/2 [6]: 7.34 h and 7.89 h
Tmax [6]: 1 h
Structure (SMILES): NC(=O)c1nn(-c2ccc(C(=O)NCCCCCNCCNc3cccc4c3C(=O)N(C3CCC(=O)NC3=O)C4=O)cc2)cc1NC(=O)c1coc(-c2ccnc(NCC(F)(F)F)c2)n1 (stereo not shown) [I-172, N-[3-carbamoyl-1-[4-[5-[2-[[2-(2,6-dioxo-3-piperidyl)-1,3-dioxo-isoindolin-4-yl]amino]ethylamino]pentylcarbamoyl]phenyl]pyrazol-4-yl]-2-[2-(2,2,2-trifluoroethylamino)-4-pyridyl]oxazole-4-carboxamide]
Cl_obs [5]: 26.2 mL/min/kg and 38.0 mL/min/kg and 31.2 mL/min/kg
